According to patent US5602153A, “Method of using 1-arylheteroarylalkyl substituted-1H-1,2,4-triazole compounds for treatment of a giaucoma disorder” (G.D. Searle & Co., priority 1993, dated 1997):
Read-outs that look alike come from different tables or passages of the source.

Tests used:
[1] = biological target: smooth muscle angiotensin II receptor; assay: Assay A: Angiotensin II Binding Activity (displacement of 125I-AII, rat uterine membrane preparation); settings: rat uterine membranes, 25 °C, 60 min; read-out: IC50 (50% displacement of total specifically bound 125I-AII)
Experimental: Assay A: Anaiotensin II Binding Activity
Compounds of the invention were tested for ability to bind to the smooth muscle angiotensin II receptor using a rat uterine membrane preparation. Angiotensin II (AII) was purchased from Peninsula Labs. ^125 I-angiotensin II (specific activity of 2200 Ci/mmol) was purchased from Du Pont-New England Nuclear. Other chemicals were obtained from Sigma Chemical Co. This assay was carried out according to the method of Douglas et al [Endocrinology, 106, 120-124 (1980)]. Rat uterine membranes were prepared from fresh tissue. All procedures were carried out at 4° C. Uteri were stripped of fat and homogenized in phosphate-buffered saline at pH 7.4 containing 5 mM EDTA. The homogenate was centrifuged at 1500×g for 20 min., and the supernatant was recentrifuged at 100,000×g for 60 min. The pellet was resuspended in buffer consisting of 2 mM EDTA and 50 mM Tris-HCl (pH 7.5) to a final protein concentration of 4 mg/ml. Assay tubes were charged with 0.25 ml of a solution containing 5 mM MgCl2, 2 mM EDTA, 0.5% bovine serum albumin, 50 mM Tris-HCl, pH 7.5 and ^125 I-AII (approximately 10^5 cpm) in the absence or in the presence of unlabelled ligand. The reaction was initiated by the addition of membrane protein and the mixture was incubated at 25° C. for 60 min. The incubation was terminated with ice-cold 50 mM Tris-HDl (pH 7.5) and the mixture was filtered to separate membrane-bound labelled peptide from the free ligand. The incubation tube and filter were washed with ice-cold buffer. Filters were assayed for radioactivity in a Micromedic gamma counter. Nonspecific binding was defined as binding in the presence of 10 μM of unlabelled AII. Specific binding was calculated as total binding minus nonspecific binding. The receptor binding affinity of an AII antagonist compound was indicated by the concentration (IC50) of the tested AII antagonist which gives 50% displacement of the total specifically bound ^125 I-AII from the high affinity AII receptor. Binding data were analyzed by a nonlinear least-squares curve fitting program.

[2] = biological target: T1, rabbit aortic rings (Oryctolagus cuniculus, UniProt P34976); assay: Assay B: In Vitro Vascular Smooth Muscle-Response for AII (antagonist activity in rabbit aortic rings); type: cell-based, rabbit (male New Zealand white); settings: antagonist 10^-5 M for 5 min, AII challenge
T1 construct: The thoracic aorta was removed, cleaned of adherent fat and connective tissue; from tissue; host or cells: thoracic aorta rings, endothelium removed, male New Zealand white rabbit
T1 sequence (P34976 1-359): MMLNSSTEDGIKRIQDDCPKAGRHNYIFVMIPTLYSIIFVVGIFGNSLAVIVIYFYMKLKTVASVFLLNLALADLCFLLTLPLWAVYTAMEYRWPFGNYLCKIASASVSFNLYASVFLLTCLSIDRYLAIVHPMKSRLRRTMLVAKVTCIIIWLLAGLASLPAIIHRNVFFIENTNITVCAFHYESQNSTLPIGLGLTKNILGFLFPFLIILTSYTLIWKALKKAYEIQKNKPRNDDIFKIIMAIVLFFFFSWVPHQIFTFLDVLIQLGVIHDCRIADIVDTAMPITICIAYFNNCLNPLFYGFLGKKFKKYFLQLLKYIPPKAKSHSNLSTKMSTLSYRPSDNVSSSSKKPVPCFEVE
Experimental: Assay B: In Vitro Vascular Smooth Muscle-Response for AII The compounds of the invention were tested for antagonist activity in rabbit aortic rings. Male New Zealand white rabbits (2-2.5 kg) were sacrificed using an overdose of pentobarbital and exsanguinated via the carotid arteries. The thoracic aorta was removed, cleaned of adherent fat and connective tissue and then cut into 3-mm ring segments. The endothelium was removed from the rings by gently sliding a rolled-up piece of filter paper into the vessel lumen. The rings were then mounted in a water-jacketed tissue bath, maintained at 37° C., between moveable and fixed ends of a stainless steel wire with the moveable end attached to an FT03 Grass transducer coupled to a Model 7D Grass Polygraph for recording isometric force responses. The bath was filled with 20 ml of oxygenated (95% oxygen/5% carbon dioxide) Krebs solution of the following composition (mM): 130 NaCl, 15 NaHCO3, 15 KCl, 1.2 NaH2 PO4, 1.2 MgSO4, 2.5 CaCl2, and 11.4 glucose. The preparations were equilibrated for one hour before approximately one gram of passive tension was placed on the rings. Angiotensin II concentration-response curves were then recorded (3×10^-10 to 1×10^-5 M). Each concentration of AII was allowed to elicit its maximal contraction, and then AII was washed out repeatedly for 30 minutes before rechallenging with a higher concentration of AII. Aorta rings were exposed to the test antagonist at 10^-5 M for 5 minutes before challenging with AII. Adjacent segments of the same aorta ring were used for all concentration-response curves in the presence or absence of the test antagonist. The effectiveness of the test compound was expressed in terms of pA2 values and were calculated according to H.O. Schild [Br. J. Pharmacol. Chemother., 2, 189-206 (1947)]. The pA2 value is the concentration of the antagonist which increases the EC50 value for AII by a factor of two. Each test antagonist was evaluated in aorta rings from two rabbits.

[3] = first of two rabbits, read-out: pA2 (first value) (converted)
[4] = second of two rabbits, read-out: pA2 (converted)

Compound | IC50 [1] | Kb [2, 3] | Kb [2, 4]
CCCCc1nc(CCCC)n(Cc2ccc(-c3ccncc3-c3nnn[nH]3)cc2)n1 [Example 5, 5-[4-[4-[(3,5-dibutyl-1H-1,2,4-triazol-1-yl)methyl]phenyl]-3-pyridinyl]-1H-tetrazole] | 250 nM |  | 
CCCCc1nc(CCCC)n(Cc2ccc(-c3ncccc3-c3nnn[nH]3)cc2)n1 [Example 7, 5-[2-[4-[(3,5-dibutyl-1H-1,2,4-triazol-1-yl)methyl]phenyl]-3-pyridinyl]-1H-tetrazole] | 98 nM | 229 nM | 91.2 nM
CCCCc1nc(CC(CC)CC)nn1Cc1ccc(-c2ccccc2-c2nnn[nH]2)nc1 [Example 13, 5-[2-[5-[[3-(2-ethylbutyl)-5-butyl-1H-1,2,4-triazol-1-yl)methyl]-2-pyridinyl]phenyl]-1H-tetrazole] | 25 nM |  | 
CCCCc1nc(CCc2ccccc2)nn1Cc1ccc(-c2ccccc2-c2nnn[nH]2)nc1 [Example 15, 5-[2-[5-[[3-(2-phenylethyl)-5-butyl-1H-1,2,4-triazol-1-yl)methyl]-2-pyridinyl]phenyl]-1H-tetrazole] | 2.6 nM |  | 
CCCCc1nc(CCc2ccccc2)n(Cc2ccc(-c3ccccc3-c3nnn[nH]3)nc2)n1 [Example 16, 5-[2-[5-[[3-butyl-5-(2-phenylethyl)-1H-1,2,4-triazol-1-yl)methyl]-2-pyridinyl]phenyl]-1H-tetrazole] | 72 nM |  | 
CCCCc1nc(C(=O)NC)nn1Cc1ccc(-c2ccccc2-c2nnn[nH]2)nc1 [Example 19, 5-[2-[5-[[3-(N-methylamido)-5-butyl-1H-1,2,4-triazol-1-yl)methyl]-2-pyridinyl]phenyl]-1H-tetrazole] | 160 nM | 234 nM | 209 nM
CCCCc1nc(C(=O)NC)n(Cc2ccc(-c3ccccc3-c3nnn[nH]3)nc2)n1 [Example 20, 5-[2-[5-[[3-butyl-5-(N-methylamido)-1H-1,2,4-triazol-1-yl)methyl]-2-pyridinyl]phenyl]-1H-tetrazole] | 350 nM | 145 nM | 145 nM
CCCCc1nc(-c2ccccc2)nn1Cc1ccc(-c2ccccc2-c2nnn[nH]2)nc1 [Example 21, 5-[2-[5-[(3-phenyl-5-butyl-1H-1,2,4-triazol-1-yl)methyl]-2-pyridinyl]phenyl]-1H-tetrazole] | 54 nM |  | 
CCCCc1nc(-c2c(F)cccc2F)n(Cc2ccc(-c3ccccc3-c3nnn[nH]3)nc2)n1 [Example 32, 5-[2-[5-[[3-butyl-5-(2,6-difluorophenyl)-1H-1,2,4-triazol-1-yl)methyl]-2-pyridinyl]phenyl]-1H-tetrazole] | 21 nM |  | 

The remaining lines, values ahead:

IC50 [1] | Kb [2, 3] | Kb [2, 4] | Compound
120 nM |  |  | CCCCc1nc(CCCC)n(Cc2ccc(-c3ccccc3C(=O)O)nc2)n1 [Example 2, 2-[5-[(3,5-dibutyl-1H-1,2,4-triazol-1-yl)methyl]-2-pyridinyl]benzoic acid]
110 nM | 77.6 nM | 251 nM | CCCCc1nc(CCCC)n(Cc2ccc(-c3cccnc3-c3nnn[nH]3)cc2)n1 [Example 4, 5-[3-[4-[(3,5-dibutyl-1H-1,2,4-triazol-1-yl)methyl]phenyl]-2-pyridinyl]-1H-tetrazole]
150 nM | 67.6 nM | 67.6 nM | CCCCc1nc(CCCC)n(Cc2ccc(-c3cnccc3-c3nnn[nH]3)cc2)n1 [Example 6, 5-[3-[4-[(3,5-dibutyl-1H-1,2,4-triazol-1-yl)methyl]phenyl]-4-pyridinyl]-1H-tetrazole]
72 nM | 34.7 nM | 25.7 nM | CCCc1nc(CCC)n(Cc2ccc(-c3ccccc3-c3nnn[nH]3)nc2)n1 [Example 8, 5-[2-[5-[(3,5-dipropyl-1H-1,2,4triazol-1-yl)methyl]-2-pyridinyl]phenyl]-1H-tetrazole]
13 nM |  |  | CCCCc1nc(CC(CC)CC)n(Cc2ccc(-c3ccccc3-c3nnn[nH]3)nc2)n1 [Example 14, 5-[2-[5-[[3-butyl-5-(2-ethylbutyl)-1H-1,2,4-triazol-1-yl)methyl]-2-pyridinyl]phenyl]-1H-tetrazole]
220 nM |  |  | CCCCc1nc(-c2ccccc2)n(Cc2ccc(-c3ccccc3-c3nnn[nH]3)nc2)n1 [Example 22, 5-[2-[5-[(3-butyl-5-phenyl-1H-1,2,4-triazol-1-yl)methyl]-2-pyridinyl]phenyl]-1H-tetrazole]
18 nM |  |  | CCCCc1nc(-c2ccccc2C)nn1Cc1ccc(-c2ccccc2-c2nnn[nH]2)nc1 [Example 23, 5-[2-[5-[[3-(2-methylphenyl)-5-butyl-1H-1,2,4-triazol-1-yl)methyl]-2-pyridinyl]phenyl]-1H-tetrazole]
530 nM |  | 603 nM | CCCCc1nc(-c2ccccc2C)n(Cc2ccc(-c3ccccc3-c3nnn[nH]3)nc2)n1 [Example 24, 5-[2-[5-[[3-butyl-5-(2-methylphenyl)-1H-1,2,4-triazol-1-yl)methyl]-2-pyridinyl]phenyl]-1H-tetrazole]
57 nM |  |  | CCCCc1nc(-c2ccccc2C(C)C)nn1Cc1ccc(-c2ccccc2-c2nnn[nH]2)nc1 [Example 25, 5-[2-[5-[[3-(2-isopropylphenyl)-5-butyl-1H-1,2,4-triazol-1-yl)methyl]-2-pyridinyl]phenyl]-1H-tetrazole]
11 nM |  |  | CCCCc1nc(-c2ccccc2C(C)C)n(Cc2ccc(-c3ccccc3-c3nnn[nH]3)nc2)n1 [Example 26, 5-[2-[5-[[3-butyl-5-(2-isopropylphenyl)-1H-1,2,4-triazol-1-yl)methyl]-2-pyridinyl]phenyl]-1H-tetrazole]
110 nM |  |  | CCCCc1nc(-c2ccccc2OC)nn1Cc1ccc(-c2ccccc2-c2nnn[nH]2)nc1 [Example 27, 5-[2-[5-[[3-(2-methoxyphenyl)-5-butyl-1H-1,2,4-triazol-1-yl)methyl]-2-pyridinyl]phenyl]-1H-tetrazole]
290 nM |  |  | CCCCc1nc(-c2ccccc2OC)n(Cc2ccc(-c3ccccc3-c3nnn[nH]3)nc2)n1 [Example 28, 5-[2-[5-[[3-butyl-5-(2-methoxyphenyl)-1H-1,2,4-triazol-1-yl)methyl]-2-pyridinyl]phenyl]-1H-tetrazole]
9.7 nM |  |  | CCCCc1nc(-c2c(F)cccc2F)nn1Cc1ccc(-c2ccccc2-c2nnn[nH]2)nc1 [Example 31, 5-[2-[5-[[3-(2,6-difluorophenyl)-5-butyl-1H-1,2,4-triazol-1-yl)methyl]-2-pyridinyl]phenyl]-1H-tetrazole]
